What all share (format): cell-based
One assay has as its target T1, human TLR8 (Homo sapiens, UniProt Q9NR97).
T1 construct: host or cells: HEK-Blue cells (HEK293-derived reporter line)
T1 sequence (Q9NR97 27-1041): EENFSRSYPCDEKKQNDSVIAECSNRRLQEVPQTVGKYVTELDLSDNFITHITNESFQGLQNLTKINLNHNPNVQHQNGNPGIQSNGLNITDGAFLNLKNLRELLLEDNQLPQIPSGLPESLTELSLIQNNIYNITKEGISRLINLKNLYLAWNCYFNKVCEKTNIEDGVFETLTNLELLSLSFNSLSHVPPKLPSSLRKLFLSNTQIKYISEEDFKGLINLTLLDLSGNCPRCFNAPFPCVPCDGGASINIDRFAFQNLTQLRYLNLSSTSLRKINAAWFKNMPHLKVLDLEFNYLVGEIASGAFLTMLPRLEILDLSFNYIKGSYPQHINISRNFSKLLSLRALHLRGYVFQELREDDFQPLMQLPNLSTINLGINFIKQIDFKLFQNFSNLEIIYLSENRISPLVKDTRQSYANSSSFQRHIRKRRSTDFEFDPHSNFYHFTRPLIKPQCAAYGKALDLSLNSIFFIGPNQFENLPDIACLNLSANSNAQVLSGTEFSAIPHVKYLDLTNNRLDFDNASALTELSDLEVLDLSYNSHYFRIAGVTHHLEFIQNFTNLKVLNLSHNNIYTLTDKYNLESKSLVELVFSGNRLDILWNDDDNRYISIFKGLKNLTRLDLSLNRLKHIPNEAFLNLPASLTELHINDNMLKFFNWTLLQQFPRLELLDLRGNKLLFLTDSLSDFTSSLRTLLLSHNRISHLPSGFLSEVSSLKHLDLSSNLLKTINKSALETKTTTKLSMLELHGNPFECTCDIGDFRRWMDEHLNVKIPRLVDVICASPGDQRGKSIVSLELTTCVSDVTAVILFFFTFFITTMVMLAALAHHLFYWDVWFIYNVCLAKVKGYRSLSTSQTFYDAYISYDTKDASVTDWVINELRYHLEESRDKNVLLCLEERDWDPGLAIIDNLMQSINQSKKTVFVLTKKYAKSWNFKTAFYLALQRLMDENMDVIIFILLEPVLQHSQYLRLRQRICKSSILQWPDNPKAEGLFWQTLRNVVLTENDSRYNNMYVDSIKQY
Kind of assay: TLR8 inhibition reporter assay (HEK-Blue cells, SEAP reporter, R848 stimulation). To be noted: HEK-Blue cells overexpressing human TLR8, SEAP reporter, R848 15.9 μM. A digest of the protocol: (§1)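 Read-out is SEAP activity in HEK-Blue detection medium after 22 h at 37 °C, converted to percent inhibition against agonist-plus-DMSO and reference-inhibitor controls. Cells saw compound (0.05 nM–50 μM, 30 min, room temperature) before gardiquimod 7.5 μM, R848 15.9 μM or ODN2006 5 nM for TLR7, TLR8 and TLR9, respectively.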
(In general: Reporter assays use an easily measured gene product as a stand-in for the process of interest.)

A further assay has as its target T2, human TLR7 (Homo sapiens, UniProt Q9NYK1).
T2 construct: host or cells: HEK-Blue cells (HEK293-derived reporter line)
T2 sequence (Q9NYK1 27-1049): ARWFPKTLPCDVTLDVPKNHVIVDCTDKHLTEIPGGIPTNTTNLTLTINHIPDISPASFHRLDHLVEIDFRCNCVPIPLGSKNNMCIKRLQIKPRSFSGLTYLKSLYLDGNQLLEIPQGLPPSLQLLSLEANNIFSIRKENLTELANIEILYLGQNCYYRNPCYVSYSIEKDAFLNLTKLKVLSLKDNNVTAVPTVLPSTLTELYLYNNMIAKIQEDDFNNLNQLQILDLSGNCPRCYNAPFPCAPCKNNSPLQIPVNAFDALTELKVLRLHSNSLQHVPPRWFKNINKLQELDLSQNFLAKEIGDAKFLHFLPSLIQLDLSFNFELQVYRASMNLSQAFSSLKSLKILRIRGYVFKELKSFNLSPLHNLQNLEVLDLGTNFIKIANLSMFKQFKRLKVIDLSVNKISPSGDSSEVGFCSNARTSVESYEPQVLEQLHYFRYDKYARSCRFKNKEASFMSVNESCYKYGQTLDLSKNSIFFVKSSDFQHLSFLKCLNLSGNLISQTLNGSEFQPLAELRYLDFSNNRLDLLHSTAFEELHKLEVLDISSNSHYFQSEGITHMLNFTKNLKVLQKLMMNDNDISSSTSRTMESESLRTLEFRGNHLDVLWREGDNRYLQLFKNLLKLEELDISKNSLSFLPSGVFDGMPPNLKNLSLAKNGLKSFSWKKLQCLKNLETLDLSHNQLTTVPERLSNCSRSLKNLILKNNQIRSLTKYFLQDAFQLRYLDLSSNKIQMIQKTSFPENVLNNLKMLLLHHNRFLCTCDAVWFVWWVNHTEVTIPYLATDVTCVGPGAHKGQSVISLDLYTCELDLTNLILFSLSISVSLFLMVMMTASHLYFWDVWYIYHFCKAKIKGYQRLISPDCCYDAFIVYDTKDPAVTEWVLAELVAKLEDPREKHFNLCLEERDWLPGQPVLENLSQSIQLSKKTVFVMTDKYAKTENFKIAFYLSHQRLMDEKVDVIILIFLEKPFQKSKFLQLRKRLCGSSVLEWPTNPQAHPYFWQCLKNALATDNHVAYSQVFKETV
As to the kind of experiment: TLR7 inhibition reporter assay (HEK-Blue cells, SEAP reporter, gardiquimod stimulation). To be noted: HEK-Blue cells overexpressing human TLR7, SEAP reporter, gardiquimod 7.5 μM. A digest of the protocol: as §1

The next assay deals with T3, human TLR9 (Homo sapiens, UniProt Q9NR96).
T3 construct: host or cells: HEK-Blue cells (HEK293-derived reporter line)
T3 sequence (Q9NR96 26-1032): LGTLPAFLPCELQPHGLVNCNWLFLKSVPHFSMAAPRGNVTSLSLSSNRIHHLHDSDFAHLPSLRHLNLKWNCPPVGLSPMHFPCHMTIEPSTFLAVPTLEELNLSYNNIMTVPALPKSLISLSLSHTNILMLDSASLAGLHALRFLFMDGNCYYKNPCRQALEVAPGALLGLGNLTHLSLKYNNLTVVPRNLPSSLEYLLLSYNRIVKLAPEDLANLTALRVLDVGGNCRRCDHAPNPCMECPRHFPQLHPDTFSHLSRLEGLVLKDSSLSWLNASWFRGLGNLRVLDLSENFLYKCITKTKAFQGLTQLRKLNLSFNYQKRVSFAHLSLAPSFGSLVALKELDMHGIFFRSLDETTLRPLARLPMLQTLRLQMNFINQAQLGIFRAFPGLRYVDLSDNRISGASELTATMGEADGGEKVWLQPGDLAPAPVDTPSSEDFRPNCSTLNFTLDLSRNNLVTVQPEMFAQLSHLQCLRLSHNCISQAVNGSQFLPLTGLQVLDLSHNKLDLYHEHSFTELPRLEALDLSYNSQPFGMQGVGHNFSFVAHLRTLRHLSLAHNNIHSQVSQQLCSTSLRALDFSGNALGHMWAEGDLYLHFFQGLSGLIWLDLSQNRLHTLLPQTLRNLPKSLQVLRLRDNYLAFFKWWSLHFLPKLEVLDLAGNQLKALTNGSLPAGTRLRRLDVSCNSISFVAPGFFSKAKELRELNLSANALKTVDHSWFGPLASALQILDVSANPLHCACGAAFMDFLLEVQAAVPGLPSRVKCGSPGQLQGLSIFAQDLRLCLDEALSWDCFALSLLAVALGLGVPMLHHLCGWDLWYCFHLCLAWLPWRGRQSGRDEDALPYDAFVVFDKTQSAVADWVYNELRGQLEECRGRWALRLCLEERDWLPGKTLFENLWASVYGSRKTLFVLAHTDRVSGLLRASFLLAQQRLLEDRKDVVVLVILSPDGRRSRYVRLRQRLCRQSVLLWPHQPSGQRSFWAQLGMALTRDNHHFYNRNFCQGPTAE
Kind of assay: TLR9 inhibition reporter assay (HEK-Blue cells, SEAP reporter, ODN2006 stimulation). Conditions: HEK-Blue cells overexpressing human TLR9, SEAP reporter, ODN2006 5 nM. Put shortly: as §1

In the case of `Cc1cc(-c2[nH]c3ccc(C4CCN(C5COC5)CC4)cc3c2C(C)C)nc2scnc12` [Example 718, 5-(3-isopropyl-5-(1-(oxetan-3-yl)piperidin-4-yl)-1H-indol-2-yl)-7-methylthiazolo[5,4-b]pyridine], the figures for the half-maximal inhibitory concentration (IC50) on human TLR8, at human TLR7 and at human TLR9 were less than 100 nM, less than 100 nM and 1000 to 50000 nM, respectively.
`COc1cc(-c2[nH]c3ccc(C4CCN(CCS(C)(=O)=O)CC4)cc3c2C(C)C)cc2ncnn12` [Example 797, 7-(3-isopropyl-5-(1-(2-(methylsulfonyl)ethyl)piperidin-4-yl)-1H-indol-2-yl)-5-methoxy-[1,2,4]triazolo[1,5-a]pyridine]: the results for the IC50 against human TLR8, on human TLR7 and on human TLR9 were less than 100 nM, less than 100 nM and 1000 to 50000 nM, respectively.
Turning to `CC(C)c1c(-c2ccc3c(O)noc3c2)[nH]c2ccc(C3CCNCC3)cc12` [Example 5, 6-(3-isopropyl-5-(piperidin-4-yl)-1H-indol-2-yl)benzo[d]isoxazol-3-ol], the IC50 was 1000 to 50000 nM against human TLR8, 100 to 1000 nM at human TLR7 and 1000 to 50000 nM against human TLR9.
For the molecule `Cc1c(-c2[nH]c3ccc(C4CCN(C5CCOCC5)CC4)cc3c2C(C)C)nn2ncnc2c1C` [Example 684, 6-(3-isopropyl-5-(1-(tetrahydro-2H-pyran-4-yl)piperidin-4-yl)-1H-indol-2-yl)-7,8-dimethyl-[1,2,4]triazolo[1,5-b]pyridazine], the IC50 against human TLR8 is less than 100 nM; on human TLR7 it was less than 100 nM; against human TLR9, 1000 to 50000 nM.
Take `CNC(=O)CN1CCC(c2ccc3[nH]c(-c4cc(C(F)(F)F)c5nc(C)cn5c4)c(C(C)C)c3c2)CC1` [Example 377, 2-(4-(3-isopropyl-2-(2-methyl-8-(trifluoromethyl)imidazo[1,2-a]pyridin-6-yl)-1H-indol-5-yl)piperidin-1-yl)-N-methylacetamide]: the IC50 was 100 to 1000 nM against human TLR8, less than 100 nM on human TLR7 and 1000 to 50000 nM against human TLR9.
The matching figures for `CC(C)NCC(=O)N1CCC(c2ccc3[nH]c(-c4ccnc5[nH]ncc45)c(C(C)C)c3c2)CC1` [Example 578, 1-(4-(3-isopropyl-2-(1H-pyrazolo[3,4-b]pyridin-4-yl)-1H-indol-5-yl)piperidin-1-yl)-2-(isopropylamino)ethan-1-one]: less than 100 nM, less than 100 nM and 1000 to 50000 nM.
On the same counts, the results for `Cc1cc2nccn2cc1-c1[nH]c2ccc(C3CCN(CCCN(C)C)CC3)cc2c1C(C)C` [Example 856, 3-(4-(3-isopropyl-2-(7-methylimidazo[1,2-a]pyridin-6-yl)-1H-indol-5-yl)piperidin-1-yl)-N,N-dimethylpropan-1-amine] are less than 100 nM, less than 100 nM and 100 to 1000 nM.
The matching figures for `Cc1nc(CN2CCC(c3ccc4[nH]c(-c5ccc6nccn6c5)c(CC(F)F)c4c3)CC2)c[nH]1` [Example 939, 6-(3-(2,2-difluoroethyl)-5-(1-((2-methyl-1H-imidazol-4-yl)methyl)piperidin-4-yl)-1H-indol-2-yl)imidazo[1,2-a]pyridine]: 100 to 1000 nM, 100 to 1000 nM and 100 to 1000 nM.
In the case of `CC(C)c1c(-c2cnc3[nH]c(=O)oc3c2)[nH]c2ccc(C3CCNCC3)cc12` [Example 16, 6-(3-isopropyl-5-(piperidin-4-yl)-1H-indol-2-yl)oxazolo[4,5-b]pyridin-2(3H)-one], the half-maximal inhibitory concentration (IC50) was greater than 3130 nM against human TLR8, 100 to 1000 nM on human TLR7 and 1000 to 50000 nM at human TLR9.
On the same counts, the results for `Cc1cc(-c2[nH]c3ccc(C4CCN(C5CCS(=O)(=O)CC5)CC4)cc3c2C(C)C)cn2nnnc12` [Example 788, 4-(4-(3-isopropyl-2-(8-methyltetrazolo[1,5-a]pyridin-6-yl)-1H-indol-5-yl)piperidin-1-yl)tetrahydro-2H-thiopyran 1,1-dioxide] are less than 100 nM, less than 100 nM and 1000 to 50000 nM.
With `Cc1c(-c2[nH]c3ccc(C4CCN(CC(=O)N(C)C)CC4)cc3c2C(C)C)cn2nnnc2c1C` [Example 309, 2-(4-(2-(7,8-dimethyltetrazolo[1,5-a]pyridin-6-yl)-3-isopropyl-1H-indol-5-yl)piperidin-1-yl)-N,N-dimethylacetamide], the results for the IC50 against human TLR8, against human TLR7 and against human TLR9 were less than 100 nM, less than 100 nM and 1000 to 50000 nM, respectively.
On to `CC(C)c1c(-c2cc(CO)c3nccn3c2)[nH]c2ccc(C3CCNCC3)cc12` [Example 124, (6-(3-isopropyl-5-(piperidin-4-yl)-1H-indol-2-yl)imidazo[1,2-a]pyridin-8-yl)methanol], for which the IC50 against human TLR8 is less than 100 nM; against human TLR7 it was less than 100 nM; at human TLR9 it was 100 to 1000 nM.

A word on the IC50: it is the concentration at which inhibition is half-maximal.

Source of the values: patent US11739098B2 (BRISTOL-MYERS SQUIBB COMPANY, priority 2017, dated 2023).
